Assay results published in publication PMC10999085, “Synthesis, anticancer evaluation, molecular docking and ADME study of novel pyrido[4ʹ,3ʹ:3,4]pyrazolo[1,5-a]pyrimidines as potential tropomyosin receptor kinase A (TrKA) inhibitors” (BMC Chemistry, 2024).
≈ marks a conversion by molar mass, not a printed value.

Tests used:
[1] = test system: HepG2 cell line; assay: MTT assay, HepG2 cell line; type: cell-based, human; details: MTT, 24 hr treatment, in % (unit assumed); for Cytotoxicity at 5 µg/l: HepG2, 5 µg/l; for Cytotoxicity at 10 µg/l: HepG2, 10 µg/l; for Cytotoxicity at 20 µg/l: HepG2, 20 µg/l
Description: (§1) Determination of the inhibitory effects of compounds on cell growth was performed through the MTT assay. This colorimetric assay is based on the conversion of the yellow tetrazolium bromide (MTT) to a purple formazan derivative by mitochondrial succinate dehydrogenase in viable cells. The protocol was discussed in details in Additional file 1.
(§2) Compounds 1, 4a,b, 7a–c, 7k, l, 9a–c, 14a, 15b, 16a–c were selected to be investigated against three human cancer cell lines MCF7, HepG2 and HCT116 cell lines using MTT assay using doxorubicin as the standard drug. Each point is the mean ± SD (standard deviation) of three independent experiments performed in triplicate, using the prism software program (integrated Graphpad software, version 3).
(§3) Cell lines were used to measure the cell growth effects of the compounds using the MTT assay. This colorimetric assay is depend on the conversion of the yellow tetrazolium bromide (MTT) to a purple formazan derivative by mitochondrial succinate dehydrogenase in living cells. Cell lines were cultured in RPMI-1640 medium supplemented with 10% fetal bovine serum. The antibiotics added were 100 units/ml penicillin and 100 µg/ml streptomycin at 37 °C in a 5% CO2 incubator. Cell lines were seeded in a 96-well plates at a density of 1.0x10^4 cells/well and cultured at 37 °C for 48 h under 5% CO2. After incubation, the cells were treated with different concentrations of compounds and incubated for 24 hr. After 24 hr of drug treatment, 20 µl of MTT solution at 5 mg/ml was added to each well and incubated for 4 hr. 100 µl of dimethyl sulfoxide (DMSO) was added into each well to dissolve the purple formazan formed. The colorimetric assay was measured and recorded at absorbance of 570 nm using a plate reader (EXL 800, USA). Relative cell viability (%) was calculated as (A570 of treated sample/A570 of untreated sample) x 100 [36, 37].

[2] = test system: MCF7 cell line; assay: MTT assay, MCF7 cell line; type: cell-based, human; details: 24 hr treatment, in % (unit assumed); for Cytotoxicity at 5 µg/l: MCF7, 5 µg/l; for Cytotoxicity at 10 µg/l: MCF7, 10 µg/l; for Cytotoxicity at 20 µg/l: MCF7, 20 µg/l
Description: as §1, §2, §3

[3] = test system: HCT-116 cell line; assay: MTT assay, HCT-116 cell line; type: cell-based, human; details: for Cytotoxicity at 5 µg/l: HCT116, 5 µg/l; for Cytotoxicity at 5 µg/l / Cytotoxicity at 10 µg/l / Cytotoxicity at 20 µg/l: MTT, 24 hr treatment, in % (unit assumed); for Cytotoxicity at 10 µg/l: HCT116, 10 µg/l; for Cytotoxicity at 20 µg/l: HCT116, 20 µg/l
Description: as §1, §2, §3

SMILES	Cytotoxicity at 5 µg/l [1]	Cytotoxicity at 10 µg/l [1]	Cytotoxicity at 20 µg/l [1]	Cytotoxicity at 5 µg/l [2]	Cytotoxicity at 10 µg/l [2]	Cytotoxicity at 20 µg/l [2]	melting point	Cytotoxicity at 5 µg/l [3]	Cytotoxicity at 10 µg/l [3]	Cytotoxicity at 20 µg/l [3]	IC50 ([3]; Homo sapiens, HCT-116, HCT116, MTT, read-out: IC50 (drug concentration that inhibited 50% of cell proliferation))
Cc1cc(C)n2nc3c(c2n1)C(=O)NC(=O)C3 [Compound 4a, 2,4-Dimethylpyrido[4ʹ,3ʹ:3,4]pyrazolo[1,5-a]pyrimidine-8,10(7H,9H)-diones]	15.91	60.95	82.16	35.61	74.99	84.71	330 °C	56.23	71.78	84.77	
O=C1Cc2nn3c(-c4ccccc4)cc(-c4ccccc4)nc3c2C(=O)N1 [Compound 4b, 2,4-Diphenylpyrido[4ʹ,3ʹ:3,4]pyrazolo[1,5-a]pyrimidine-8,10(7H,9H)-dione]	38.14	43.81	76.43	22.19	55.85	70.37	300 °C	7.31	21.33	66.23	
Cc1cc(C)n2nc3c(c2n1)C(=O)NC(=O)C3=Cc1ccccc1 [Compound 7a, 7-Benzylidene-2,4-dimethylpyrido[4ʹ,3ʹ:3,4]pyrazolo[1,5-a]pyrimidine-8,10(7H,9H)-dione]	38.17	42.56	76.04	30.13	45.66	66.12	240 °C	50.82	84.52	91.78	
Cc1cc(C)n2nc3c(c2n1)C(=O)NC(=O)C3=Cc1ccc(Cl)cc1 [Compound 7c]	35.08	41.65	67.89	40.12	69.00	92.48	260 °C	50.56	68.21	68.85	4.07 ng/mL (≈ 0.0115 µM)
O=C1NC(=O)c2c(nn3c(-c4ccccc4)cc(-c4ccccc4)nc23)C1=Cc1ccccc1 [Compound 7k, 7-Benzylidene-2,4-diphenylpyrido[4ʹ,3ʹ:3,4]pyrazolo[1,5-a]pyrimidine-8,10(7H,9H)-dione]	41.84	88.59	90.19	36.19	55.16	71.12	275 °C	39.48	46.55	62.92	
COc1ccc(C=C2C(=O)NC(=O)c3c2nn2c(-c4ccccc4)cc(-c4ccccc4)nc32)cc1 [Compound 7l]	40.25	71.84	96.62	40.19	52.28	97.26	315 °C	57.14	61.58	91.59	
Cc1cc(C)n2nc3c(c2n1)C(=O)NC(=O)C3=NNc1ccccc1 [Compound 9a, 2,4-Dimethyl-7-(2-phenylhydrazono)pyrido[4ʹ,3ʹ:3,4]pyrazolo[1,5-a]pyrimidine-8,10(7H,9H)-dione]	13.11	49.16	79.17	36.10	49.11	75.34	300 °C	34.38	55.47	65.98	
Cc1ccc(NN=C2C(=O)NC(=O)c3c2nn2c(C)cc(C)nc32)cc1 [Compound 9b, 2,4-Dimethyl-7-(2-(p-tolyl)hydrazono)pyrido[4ʹ,3ʹ:3,4]pyrazolo[1,5-a]pyrimidine-8,10(7H,9H)-dione]	8.46	33.81	73.11	33.82	51.19	72.13	285 °C	22.09	40.50	59.80	
Cc1cc(O)n2nc3c(c2n1)C(=O)NC(=O)C3 [Compound 14a, 4-Hydroxy-2-methylpyrido[4ʹ,3ʹ:3,4]pyrazolo[1,5-a]pyrimidine-8,10(7H,9H)-dione]	11.39	40.75	83.75	25.14	48.62	77.19	> 360 °C	28.84	55.79	58.72	
Cc1ccc(NN=C2C(=O)NC(=O)c3c2nn2c(O)cc(C)nc32)cc1 [Compound 16b, 4-Hydroxy-2-methyl-7-(2-(p-tolyl)hydrazono)pyrido[4ʹ,3ʹ:3,4]pyrazolo[1,5-a]pyrimidine-8,10(7H,9H)-dione]	18.01	42.54	50.18	54.13	55.27	80.56	330 °C	23.18	52.73	85.28	
O=C1NC(=O)c2c(nn3c(O)cc(-c4ccccc4)nc23)C1=NNc1ccccc1 [Compound 16e, 4-Hydroxy-2-phenyl-7-(2-phenylhydrazono)pyrido[4ʹ,3ʹ:3,4]pyrazolo[1,5-a]pyrimidine-8,10(7H,9H)-dione]							300 °C				
Cc1ccc(NN=C2C(=O)NC(=O)c3c2nn2c(O)cc(-c4ccccc4)nc32)cc1 [Compound 16f, 4-Hydroxy-2-phenyl-7-(2-(p-tolyl)hydrazono)pyrido[4ʹ,3ʹ:3,4]pyrazolo[1,5-a]pyrimidine-8,10(7H,9H)-dione]							320 °C				
COc1ccc(NN=C2C(=O)NC(=O)c3c2nn2c(O)cc(-c4ccccc4)nc32)cc1 [Compound 16g, 4-Hydroxy-7-(2-(4-methoxyphenyl)hydrazono)-2-phenylpyrido[4ʹ,3ʹ:3,4]pyrazolo[1,5-a]pyrimidine-8,10(7H,9H)-dione]							323 °C				
O=C1NC(=O)c2c(nn3c(O)cc(-c4ccccc4)nc23)C1=NNc1ccc(Cl)cc1 [Compound 16h, 7-(2-(4-Chlorophenyl)hydrazono)-4-hydroxy-2-phenylpyrido[4ʹ,3ʹ:3,4]pyrazolo[1,5-a]pyrimidine-8,10(7H,9H)-dione]							330 °C				
